Results taken from US11225505B2, “Antimicrobial polymyxin derivative compounds” (MONASH UNIVERSITY, priority 2015, dated 2022).
Converted amounts (≈) assume the structure as drawn. Where a SMILES comes first, the peptide text is derived from it. Bridges are numbered along the chain shown (N, C = ends). [ ]: non-standard residue; d: D form. The star is where a group is joined. X49 = O=C(c1cnc(C(F)(F)F)nc1)*; X58 = Cn1cc(CC(=O)*)c2ccccc21; X15 = O=C(c1ccc(Cl)nc1Cl)*; X50 = O=C(c1sc(Br)cc1Br)*; X25 = O=C(c1ccnc(Cl)c1)*; Dab = NCC[C@H](N)C(=O)O; Abu = CC[C@H](N)C(=O)O; Dap = NC[C@H](N)C(=O)O

Columns and labels:
Format in all cases: cell-based
[1] = test system: Klebsiella pneumoniae Kp BM1; conditions: Kp BM1
Summary of the method: (§1)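 MICs were determined by broth microdilution in cation-adjusted Mueller-Hinton broth following the CLSI M100-S24 protocol. Lipopeptides were tested as trifluoroacetic acid salts against polymyxin-susceptible Gram-negative strains, with polymyxin B sulphate as control. FADDI-PA022 and FADDI-AB034 are multidrug-resistant clinical isolates.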

[2] = test system: Pseudomonas aeruginosa ATCC 27853; conditions: ATCC 27853
Summary of the method: (§2)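 Lipopeptides (TFA salts) tested against Gram-negative strains by CLSI broth microdilution using cation-adjusted Mueller-Hinton broth; MIC recorded, polymyxin B sulphate as control.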

[3] = test system: Pseudomonas aeruginosa FADDI-PA01; conditions: FADDI-
Summary of the method: as §2

[4] = test system: Acinetobacter baumannii FADDI-AB034; conditions: FADDI-AB034
Summary of the method: as §2

[5] = test system: Enterobacter cloacae FADDI-EC001; conditions: FADDI-EC001
Summary of the method: as §1

[6] = test system: Pseudomonas aeruginosa FADDI-PA022; conditions: FADDI-PA022
Summary of the method: as §2

[7] = test system: Pseudomonas aeruginosa FADDI-PA038; conditions: FADDI-PA038
Summary of the method: as §2

[8] = test system: Klebsiella pneumoniae FADDI-KP022; conditions: FADDI-KP022
Summary of the method: as §2

[9] = test system: Acinetobacter baumannii ATCC 17978; conditions: ATCC 17978
Summary of the method: as §2

[10] = test system: Klebsiella pneumoniae FADDI-KP032; conditions: FADDI-KP032
Summary of the method: as §2

[11] = test system: Enterobacter cloacae FADDI-EC006; conditions: FADDI-EC006
Summary of the method: as §2

[12] = test system: Enterobacter cloacae FADDI-EC003; conditions: FADDI-EC003
Summary of the method: as §2

[13] = test system: Acinetobacter baumannii FADDI-AB030; assay: microbe, parasite or virus in culture; conditions: FADDI-AB030
Summary of the method: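 Lipopeptide TFA salts tested against the multidrug-resistant clinical isolate by CLSI (M100-S24) broth microdilution in cation-adjusted Mueller-Hinton broth, with polymyxin B sulphate as control; MIC read.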

In the case of `CC[C@@H]1NC(=O)[C@@H](CC(C)C)NC(=O)[C@H](CCN)NC(=O)[C@@H](NC(=O)[C@H](CN)NC(=O)[C@@H](NC(=O)[C@H](CCN)NC(=O)Cc2cn(C)c3ccccc23)[C@@H](C)O)CCNC(=O)[C@H]([C@@H](C)O)NC(=O)[C@H](CCN)NC(=O)[C@H](CCN)NC1=O` [Compound 62] (X58-[Dab]T[Dap][Dab][Dab][dL][Abu][Dab][Dab]T; lactam 4-C), the Minimum inhibitory concentration [1] was 0.25 mg/L (≈ 0.216 µM), the Minimum inhibitory concentration [2] was 0.5 mg/L (≈ 0.432 µM) and the Minimum inhibitory concentration [3] was 1 mg/L (≈ 0.863 µM). The Minimum inhibitory concentration [4] was 0.5 mg/L (≈ 0.432 µM), the Minimum inhibitory concentration [5] was less than 0.125 mg/L and the Minimum inhibitory concentration [6] was 0.5 mg/L (≈ 0.432 µM). For the same molecule, the Minimum inhibitory concentration [7] was 0.5 mg/L (≈ 0.432 µM), the Minimum inhibitory concentration [8] was less than 0.125 mg/L and the Minimum inhibitory concentration [9] was 0.5 mg/L (≈ 0.432 µM). For the same molecule, the Minimum inhibitory concentration [10] was less than 0.125 mg/L, the Minimum inhibitory concentration [11] was 0.5 mg/L (≈ 0.432 µM) and the Minimum inhibitory concentration [12] was 0.25 mg/L (≈ 0.216 µM). It also gave a Minimum inhibitory concentration [13] of 0.5 mg/L (≈ 0.432 µM).
For `CC[C@@H]1NC(=O)[C@@H](CC(C)C)NC(=O)[C@H](CCN)NC(=O)[C@@H](NC(=O)[C@H](CN)NC(=O)[C@@H](NC(=O)[C@H](CCN)NC(=O)c2cnc(C(F)(F)F)nc2)[C@@H](C)O)CCNC(=O)[C@H]([C@@H](C)O)NC(=O)[C@H](CCN)NC(=O)[C@H](CCN)NC1=O` [Compound 45] (X49-[Dab]T[Dap][Dab][Dab][dL][Abu][Dab][Dab]T; lactam 4-C), the Minimum inhibitory concentration [1] was 0.5 mg/L (≈ 0.431 µM), the Minimum inhibitory concentration [2] was 0.25 mg/L (≈ 0.215 µM) and the Minimum inhibitory concentration [3] was less than 0.125 mg/L. The Minimum inhibitory concentration [4] was 0.5 mg/L (≈ 0.431 µM), the Minimum inhibitory concentration [5] was less than 0.125 mg/L and the Minimum inhibitory concentration [6] was 0.25 mg/L (≈ 0.215 µM). The Minimum inhibitory concentration [7] was 1 mg/L (≈ 0.861 µM), the Minimum inhibitory concentration [8] was less than 0.125 mg/L and the Minimum inhibitory concentration [9] was 2 mg/L (≈ 1.72 µM). The Minimum inhibitory concentration [10] was 0.5 mg/L (≈ 0.431 µM), the Minimum inhibitory concentration [11] was 2 mg/L (≈ 1.72 µM) and the Minimum inhibitory concentration [12] was 2 mg/L (≈ 1.72 µM). The Minimum inhibitory concentration [13] was 0.5 mg/L (≈ 0.431 µM).
Work on `CC[C@@H]1NC(=O)[C@@H](CC(C)C)NC(=O)[C@H](CCN)NC(=O)[C@@H](NC(=O)[C@H](CN)NC(=O)[C@@H](NC(=O)[C@H](CCN)NC(=O)c2ccc(Cl)nc2Cl)[C@@H](C)O)CCNC(=O)[C@H]([C@@H](C)O)NC(=O)[C@H](CCN)NC(=O)[C@H](CCN)NC1=O` [Compound 7] (X15-[Dab]T[Dap][Dab][Dab][dL][Abu][Dab][Dab]T; lactam 4-C) yielded a Minimum inhibitory concentration [1] of 0.5 mg/L (≈ 0.431 µM), a Minimum inhibitory concentration [2] of 1 mg/L (≈ 0.861 µM) and a Minimum inhibitory concentration [3] of 0.25 mg/L (≈ 0.215 µM). It also gave a Minimum inhibitory concentration [4] of 2 mg/L (≈ 1.72 µM), a Minimum inhibitory concentration [5] of less than 0.125 mg/L and a Minimum inhibitory concentration [6] of 1 mg/L (≈ 0.861 µM). For the same molecule, the Minimum inhibitory concentration [7] was 0.5 mg/L (≈ 0.431 µM), the Minimum inhibitory concentration [8] was less than 0.125 mg/L and the Minimum inhibitory concentration [9] was 1 mg/L (≈ 0.861 µM). For the same molecule, the Minimum inhibitory concentration [10] was 1 mg/L (≈ 0.861 µM), the Minimum inhibitory concentration [11] was 0.25 mg/L (≈ 0.215 µM) and the Minimum inhibitory concentration [12] was less than 0.125 mg/L. It also gave a Minimum inhibitory concentration [13] of 0.5 mg/L (≈ 0.431 µM).
Work on `CC(C)C[C@H]1NC(=O)[C@H](CCN)NC(=O)[C@@H](NC(=O)[C@H](CN)NC(=O)[C@@H](NC(=O)[C@H](CCN)NC(=O)c2sc(Br)cc2Br)[C@@H](C)O)CCNC(=O)[C@H]([C@@H](C)O)NC(=O)[C@H](CCN)NC(=O)[C@H](CCN)NC(=O)[C@H]([C@@H](C)O)NC1=O` [Compound 100] (X50-[Dab]T[Dap][Dab][Dab][dL]T[Dab][Dab]T; lactam 4-C) yielded a Minimum inhibitory concentration [1] of 0.5 mg/L (≈ 0.393 µM), a Minimum inhibitory concentration [2] of less than 0.125 mg/L and a Minimum inhibitory concentration [3] of less than 0.125 mg/L. It also gave a Minimum inhibitory concentration [4] of 0.5 mg/L (≈ 0.393 µM), a Minimum inhibitory concentration [5] of less than 0.125 mg/L and a Minimum inhibitory concentration [6] of less than 0.125 mg/L. The Minimum inhibitory concentration [7] was 1 mg/L (≈ 0.787 µM), the Minimum inhibitory concentration [8] was less than 0.125 mg/L and the Minimum inhibitory concentration [9] was 0.25 mg/L (≈ 0.197 µM). It also gave a Minimum inhibitory concentration [10] of 0.25 mg/L (≈ 0.197 µM), a Minimum inhibitory concentration [11] of less than 0.125 mg/L and a Minimum inhibitory concentration [12] of less than 0.125 mg/L. The Minimum inhibitory concentration [13] was 0.5 mg/L (≈ 0.393 µM).
`CC[C@@H]1NC(=O)[C@@H](CC(C)C)NC(=O)[C@H](CCN)NC(=O)[C@@H](NC(=O)[C@H](CN)NC(=O)[C@@H](NC(=O)[C@H](CCN)NC(=O)c2ccnc(Cl)c2)[C@@H](C)O)CCNC(=O)[C@H]([C@@H](C)O)NC(=O)[C@H](CCN)NC(=O)[C@H](CCN)NC1=O` [Compound 24] (X25-[Dab]T[Dap][Dab][Dab][dL][Abu][Dab][Dab]T; lactam 4-C) was tested, and the Minimum inhibitory concentration [1] was 0.25 mg/L (≈ 0.222 µM), the Minimum inhibitory concentration [2] was 0.25 mg/L (≈ 0.222 µM) and the Minimum inhibitory concentration [3] was 0.25 mg/L (≈ 0.222 µM). It also gave a Minimum inhibitory concentration [4] of 1 mg/L (≈ 0.888 µM), a Minimum inhibitory concentration [5] of 0.25 mg/L (≈ 0.222 µM) and a Minimum inhibitory concentration [6] of 0.25 mg/L (≈ 0.222 µM). The Minimum inhibitory concentration [7] was 1 mg/L (≈ 0.888 µM), the Minimum inhibitory concentration [8] was less than 0.125 mg/L and the Minimum inhibitory concentration [9] was 2 mg/L (≈ 1.78 µM). It also gave a Minimum inhibitory concentration [10] of 0.5 mg/L (≈ 0.444 µM), a Minimum inhibitory concentration [11] of 4 mg/L (≈ 3.55 µM) and a Minimum inhibitory concentration [12] of 0.25 mg/L (≈ 0.222 µM). For the same molecule, the Minimum inhibitory concentration [13] was 1 mg/L (≈ 0.888 µM).
